How the values were obtained:
Assay in all cases: Proqinase Kinase profiling
Assay type in all cases: biochemical
Conditions in all cases: read-out: % inhibition at 100nM
NEK11 = biological target: T1, NEK11 (Homo sapiens, UniProt Q8NG66)
T1 construct: purchased DiscoverX

KIT_V559D = biological target: T2, KIT_V559D (Homo sapiens, UniProt P10721, V559D)
T2 construct: purchased DiscoverX

SGK3 = biological target: T3, SGK3 (Homo sapiens, UniProt Q96BR1)
T3 construct: purchased DiscoverX

ALK_C1156Y = biological target: T4, ALK_C1156Y (Homo sapiens, UniProt Q9UM73, C1156Y)
T4 construct: purchased DiscoverX
T4 sequence (Q9UM73 19-1620 C1156Y): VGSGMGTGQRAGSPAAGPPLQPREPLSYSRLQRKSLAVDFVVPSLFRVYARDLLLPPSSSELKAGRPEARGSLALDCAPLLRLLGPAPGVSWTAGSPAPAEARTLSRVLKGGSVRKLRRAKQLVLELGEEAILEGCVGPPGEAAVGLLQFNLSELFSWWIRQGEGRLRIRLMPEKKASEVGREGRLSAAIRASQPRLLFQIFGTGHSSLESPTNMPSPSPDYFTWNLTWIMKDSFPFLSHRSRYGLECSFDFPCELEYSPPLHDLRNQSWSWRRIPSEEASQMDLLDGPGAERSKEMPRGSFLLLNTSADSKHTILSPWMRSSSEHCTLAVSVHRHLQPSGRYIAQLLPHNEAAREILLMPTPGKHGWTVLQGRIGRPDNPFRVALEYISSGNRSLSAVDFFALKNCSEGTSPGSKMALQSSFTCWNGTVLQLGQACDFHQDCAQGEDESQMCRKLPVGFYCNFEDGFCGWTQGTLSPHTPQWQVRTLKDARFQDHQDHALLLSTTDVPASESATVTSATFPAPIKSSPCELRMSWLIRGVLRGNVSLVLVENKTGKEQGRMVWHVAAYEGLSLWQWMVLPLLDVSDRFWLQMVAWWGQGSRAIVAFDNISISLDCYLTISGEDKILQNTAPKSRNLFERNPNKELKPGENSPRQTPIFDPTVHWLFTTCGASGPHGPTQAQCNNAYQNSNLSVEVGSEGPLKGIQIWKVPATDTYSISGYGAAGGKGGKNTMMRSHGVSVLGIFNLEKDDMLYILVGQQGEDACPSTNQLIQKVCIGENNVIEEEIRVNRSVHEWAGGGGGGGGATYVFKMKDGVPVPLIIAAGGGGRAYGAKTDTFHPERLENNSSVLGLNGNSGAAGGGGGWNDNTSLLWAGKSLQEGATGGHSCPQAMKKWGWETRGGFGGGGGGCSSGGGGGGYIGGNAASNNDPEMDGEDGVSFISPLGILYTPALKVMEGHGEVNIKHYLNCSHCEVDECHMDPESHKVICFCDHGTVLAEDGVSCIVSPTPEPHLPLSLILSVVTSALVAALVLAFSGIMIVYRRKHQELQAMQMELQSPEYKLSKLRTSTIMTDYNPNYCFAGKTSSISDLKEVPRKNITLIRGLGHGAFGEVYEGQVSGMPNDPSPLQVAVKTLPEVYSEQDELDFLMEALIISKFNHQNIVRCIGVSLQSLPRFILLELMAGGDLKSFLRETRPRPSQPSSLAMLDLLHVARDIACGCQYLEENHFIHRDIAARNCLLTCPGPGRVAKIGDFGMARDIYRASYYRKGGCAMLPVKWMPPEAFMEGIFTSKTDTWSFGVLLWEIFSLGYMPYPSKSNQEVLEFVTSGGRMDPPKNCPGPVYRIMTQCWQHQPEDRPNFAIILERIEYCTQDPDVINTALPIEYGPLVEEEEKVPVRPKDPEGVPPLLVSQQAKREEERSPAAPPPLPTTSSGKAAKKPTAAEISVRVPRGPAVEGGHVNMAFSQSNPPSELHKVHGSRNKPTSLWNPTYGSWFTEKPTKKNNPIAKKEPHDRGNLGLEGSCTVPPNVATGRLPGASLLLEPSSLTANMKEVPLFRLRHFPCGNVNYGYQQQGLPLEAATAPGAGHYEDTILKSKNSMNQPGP

PLK1 = biological target: T5, PLK1 (Homo sapiens, UniProt P53350)
T5 construct: purchased DiscoverX

MKNK1 = biological target: T6, MKNK1 (Homo sapiens, UniProt Q9BUB5)
T6 construct: purchased DiscoverX

CDC42BPB = biological target: T7, CDC42BPB (Homo sapiens, UniProt Q9Y5S2)
T7 construct: purchased DiscoverX

BRAF = biological target: T8, BRAF (Homo sapiens, UniProt P15056)
T8 construct: purchased DiscoverX

ROCK2 = biological target: T9, ROCK2 (Homo sapiens, UniProt O75116)
T9 construct: purchased DiscoverX

ABL1 = biological target: T10, ABL1 (Homo sapiens, UniProt P00519)
T10 construct: purchased DiscoverX

STK39 = biological target: T11, STK39 (Homo sapiens, UniProt Q9UEW8)
T11 construct: purchased DiscoverX

ALK_R1275Q = biological target: T12, ALK_R1275Q (Homo sapiens, UniProt Q9UM73, R1275Q)
T12 construct: purchased DiscoverX
T12 sequence (Q9UM73 19-1620 R1275Q): as the sequence (Q9UM73 19-1620 C1156Y) above, with Y1138C, R1257Q counted along it

PAK6 = biological target: T13, PAK6 (Homo sapiens, UniProt Q9NQU5)
T13 construct: purchased DiscoverX

TSSK2 = biological target: T14, TSSK2 (Homo sapiens, UniProt Q96PF2)
T14 construct: purchased DiscoverX

ABL1_M351T = biological target: T15, ABL1_M351T (Homo sapiens, UniProt P00519, M351T)
T15 construct: purchased DiscoverX

ALK_F1174S = biological target: T16, ALK_F1174S (Homo sapiens, UniProt Q9UM73, F1174S)
T16 construct: purchased DiscoverX
T16 sequence (Q9UM73 19-1620 F1174S): as the sequence (Q9UM73 19-1620 C1156Y) above, with Y1138C, F1156S counted along it

CDK9_cyclinT1 = biological target: T17, CDK9_cyclinT1 (Homo sapiens, UniProt P50750)
T17 construct: purchased DiscoverX

PAK1 = biological target: T18, PAK1 (Homo sapiens, UniProt Q13153)
T18 construct: purchased DiscoverX
T18 sequence (Q13153 whole entry): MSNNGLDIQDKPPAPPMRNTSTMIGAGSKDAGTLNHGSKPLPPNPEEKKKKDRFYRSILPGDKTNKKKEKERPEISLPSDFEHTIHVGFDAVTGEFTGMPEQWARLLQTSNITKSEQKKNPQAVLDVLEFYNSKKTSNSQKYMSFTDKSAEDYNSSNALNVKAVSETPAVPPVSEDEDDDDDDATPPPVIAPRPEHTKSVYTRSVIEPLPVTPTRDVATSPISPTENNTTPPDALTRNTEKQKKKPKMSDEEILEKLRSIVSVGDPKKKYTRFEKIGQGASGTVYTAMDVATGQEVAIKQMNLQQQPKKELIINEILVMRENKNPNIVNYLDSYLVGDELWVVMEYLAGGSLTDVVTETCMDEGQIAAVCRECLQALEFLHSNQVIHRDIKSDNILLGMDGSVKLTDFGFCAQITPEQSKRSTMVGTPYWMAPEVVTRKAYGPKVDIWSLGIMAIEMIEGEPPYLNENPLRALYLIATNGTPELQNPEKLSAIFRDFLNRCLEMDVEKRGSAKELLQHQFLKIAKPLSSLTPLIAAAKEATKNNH

MATK = biological target: T19, MATK (Homo sapiens, UniProt P42679)
T19 construct: purchased DiscoverX

IRAK4 = biological target: T20, IRAK4 (Homo sapiens, UniProt Q9NWZ3)
T20 construct: purchased DiscoverX

GRK4 = biological target: T21, GRK4 (Homo sapiens, UniProt P32298)
T21 construct: purchased DiscoverX
T21 sequence (P32298 whole entry): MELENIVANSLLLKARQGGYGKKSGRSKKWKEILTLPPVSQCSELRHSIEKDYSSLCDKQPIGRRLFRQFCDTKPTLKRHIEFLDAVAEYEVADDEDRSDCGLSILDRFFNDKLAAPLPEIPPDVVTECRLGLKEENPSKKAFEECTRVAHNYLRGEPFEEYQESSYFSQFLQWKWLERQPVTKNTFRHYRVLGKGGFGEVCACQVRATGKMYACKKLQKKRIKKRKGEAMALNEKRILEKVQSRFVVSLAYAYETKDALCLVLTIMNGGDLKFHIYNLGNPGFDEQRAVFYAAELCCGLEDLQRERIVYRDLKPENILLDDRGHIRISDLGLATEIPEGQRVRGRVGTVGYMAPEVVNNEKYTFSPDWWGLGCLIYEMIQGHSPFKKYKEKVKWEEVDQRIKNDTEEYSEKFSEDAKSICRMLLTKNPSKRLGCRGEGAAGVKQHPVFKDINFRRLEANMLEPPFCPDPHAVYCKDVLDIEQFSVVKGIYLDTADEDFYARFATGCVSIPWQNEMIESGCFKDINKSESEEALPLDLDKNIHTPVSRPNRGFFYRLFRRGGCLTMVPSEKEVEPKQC

RET = biological target: T22, RET (Homo sapiens, UniProt P07949)
T22 construct: purchased DiscoverX

LIMK2 = biological target: T23, LIMK2 (Homo sapiens, UniProt P53671)
T23 construct: purchased DiscoverX

TGFBR2 = biological target: T24, TGFBR2 (Homo sapiens, UniProt P37173)
T24 construct: purchased DiscoverX

ADRBK1 = biological target: T25, ADRBK1 (Homo sapiens, UniProt P25098)
T25 construct: purchased DiscoverX

EGFR_E746-A750del = biological target: T26, EGFR_E746-A750del (Homo sapiens, UniProt P00533, DEL746-750)
T26 construct: purchased DiscoverX

FLT3 = biological target: T27, FLT3 (Homo sapiens, UniProt P36888)
T27 construct: purchased DiscoverX

FGFR3_G697C = biological target: T28, FGFR3_G697C (Homo sapiens, UniProt P22607, G697C)
T28 construct: purchased DiscoverX
T28 sequence (P22607 23-806 G697C): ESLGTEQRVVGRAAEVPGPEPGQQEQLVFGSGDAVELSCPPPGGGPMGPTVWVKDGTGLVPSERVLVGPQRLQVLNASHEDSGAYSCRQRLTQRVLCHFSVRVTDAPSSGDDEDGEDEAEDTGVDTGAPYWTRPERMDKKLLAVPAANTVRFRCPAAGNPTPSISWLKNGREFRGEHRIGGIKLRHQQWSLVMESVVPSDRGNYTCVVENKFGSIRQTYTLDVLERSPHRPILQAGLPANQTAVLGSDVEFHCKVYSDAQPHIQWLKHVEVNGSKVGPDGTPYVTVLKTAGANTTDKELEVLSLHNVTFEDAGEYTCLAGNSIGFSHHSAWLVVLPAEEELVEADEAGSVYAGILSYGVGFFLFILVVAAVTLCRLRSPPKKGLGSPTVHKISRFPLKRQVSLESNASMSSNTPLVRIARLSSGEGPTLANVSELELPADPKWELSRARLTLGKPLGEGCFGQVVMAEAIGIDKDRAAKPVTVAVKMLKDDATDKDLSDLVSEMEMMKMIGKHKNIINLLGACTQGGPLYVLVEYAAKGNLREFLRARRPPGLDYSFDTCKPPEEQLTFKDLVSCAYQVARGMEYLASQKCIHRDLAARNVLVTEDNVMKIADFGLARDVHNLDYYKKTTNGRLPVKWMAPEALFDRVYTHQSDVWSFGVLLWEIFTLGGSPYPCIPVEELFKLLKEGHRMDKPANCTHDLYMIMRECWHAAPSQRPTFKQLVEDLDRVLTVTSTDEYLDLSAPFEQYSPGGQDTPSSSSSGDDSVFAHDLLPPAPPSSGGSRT

ABL1_E255K = biological target: T29, ABL1_E255K (Homo sapiens, UniProt P00519, E255K)
T29 construct: purchased DiscoverX

RET_R749T = biological target: T30, RET_R749T (Homo sapiens, UniProt P07949, R749T)
T30 construct: purchased DiscoverX

TBK1 = biological target: T31, TBK1 (Homo sapiens, UniProt Q9UHD2)
T31 construct: purchased DiscoverX

CDK5_p35 = biological target: T32, CDK5_p35 (Homo sapiens, UniProt Q00535)
T32 construct: purchased DiscoverX

KIT_V560G = biological target: T33, KIT_V560G (Homo sapiens, UniProt P10721, V560G)
T33 construct: purchased DiscoverX

PLK2 = biological target: T34, PLK2 (Homo sapiens, UniProt Q9NYY3)
T34 construct: purchased DiscoverX

CSNK1A1 = biological target: T35, CSNK1A1 (Homo sapiens, UniProt P48729)
T35 construct: purchased DiscoverX

TEK_R849W = biological target: T36, TEK_R849W (Homo sapiens, UniProt Q02763, R849W)
T36 construct: purchased DiscoverX

PRKD3 = biological target: T37, PRKD3 (Homo sapiens, UniProt O94806)
T37 construct: purchased DiscoverX

EIF2AK2 = biological target: T38, EIF2AK2 (Homo sapiens, UniProt P19525)
T38 construct: purchased DiscoverX

TAOK2 = biological target: T39, TAOK2 (Homo sapiens, UniProt Q9UL54)
T39 construct: purchased DiscoverX
T39 sequence (Q9UL54 whole entry): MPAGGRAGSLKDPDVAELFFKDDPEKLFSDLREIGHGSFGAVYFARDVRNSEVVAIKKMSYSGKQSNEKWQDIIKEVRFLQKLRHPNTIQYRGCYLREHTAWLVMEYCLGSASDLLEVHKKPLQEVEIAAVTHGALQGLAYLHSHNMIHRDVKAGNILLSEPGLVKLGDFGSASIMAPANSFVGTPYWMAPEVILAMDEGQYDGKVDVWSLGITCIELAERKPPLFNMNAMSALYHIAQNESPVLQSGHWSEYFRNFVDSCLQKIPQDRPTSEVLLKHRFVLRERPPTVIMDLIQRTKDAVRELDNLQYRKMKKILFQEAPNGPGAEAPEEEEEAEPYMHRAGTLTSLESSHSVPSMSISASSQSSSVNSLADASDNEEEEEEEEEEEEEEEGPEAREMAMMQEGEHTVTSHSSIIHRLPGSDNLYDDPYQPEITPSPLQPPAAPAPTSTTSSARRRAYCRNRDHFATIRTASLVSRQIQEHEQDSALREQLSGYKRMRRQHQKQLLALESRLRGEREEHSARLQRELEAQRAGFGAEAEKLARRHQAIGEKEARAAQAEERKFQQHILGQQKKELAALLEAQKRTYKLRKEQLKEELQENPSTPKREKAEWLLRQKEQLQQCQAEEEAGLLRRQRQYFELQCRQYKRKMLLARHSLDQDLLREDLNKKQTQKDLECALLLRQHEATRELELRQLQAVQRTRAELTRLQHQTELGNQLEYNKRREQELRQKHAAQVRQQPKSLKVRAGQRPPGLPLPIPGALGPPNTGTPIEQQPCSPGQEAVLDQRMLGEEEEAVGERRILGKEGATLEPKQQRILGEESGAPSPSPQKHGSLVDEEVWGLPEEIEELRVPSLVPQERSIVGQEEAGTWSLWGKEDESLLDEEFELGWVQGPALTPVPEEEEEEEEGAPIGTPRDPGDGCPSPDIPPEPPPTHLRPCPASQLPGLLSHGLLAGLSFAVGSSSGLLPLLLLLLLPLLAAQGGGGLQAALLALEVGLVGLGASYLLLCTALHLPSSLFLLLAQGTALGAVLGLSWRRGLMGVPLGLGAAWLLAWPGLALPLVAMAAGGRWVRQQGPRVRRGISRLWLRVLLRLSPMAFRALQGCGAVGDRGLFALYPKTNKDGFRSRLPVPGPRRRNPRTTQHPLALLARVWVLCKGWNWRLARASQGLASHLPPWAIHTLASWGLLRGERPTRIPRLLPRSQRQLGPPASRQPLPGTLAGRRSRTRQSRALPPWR

NLK = biological target: T40, NLK (Homo sapiens, UniProt Q9UBE8)
T40 construct: purchased DiscoverX

LRRK2_I2020T = biological target: T41, LRRK2_I2020T (Homo sapiens, UniProt Q5S007, I2020T)
T41 construct: purchased DiscoverX

STK25 = biological target: T42, STK25 (Homo sapiens, UniProt O00506)
T42 construct: purchased DiscoverX

Question: `Clc1cc2cc(c1)-c1cnn3ccc(nc13)NCCOCCO2` [OD36] was tested. Which inhibition at 0.1 µM (NEK11) did it give?
Answer: 4%

Question: And the inhibition at 0.1 µM (KIT_V559D)?
Answer: 15%

Question: And the inhibition at 0.1 µM (SGK3)?
Answer: 7%

Question: What about the inhibition at 0.1 µM (ALK_C1156Y) of the same compound?
Answer: 13%

Question: What about the inhibition at 0.1 µM (PLK1) of the same compound?
Answer: 7%

Question: And the inhibition at 0.1 µM (MKNK1)?
Answer: 23%

Question: What about the inhibition at 0.1 µM (CDC42BPB) of the same compound?
Answer: 7%

Question: What about the inhibition at 0.1 µM (BRAF) of the same compound?
Answer: 20%

Question: What about the inhibition at 0.1 µM (ROCK2) of the same compound?
Answer: 7%

Question: What about the inhibition at 0.1 µM (ABL1) of the same compound?
Answer: 3%

Question: What about the inhibition at 0.1 µM (STK39) of the same compound?
Answer: 0%

Question: What about the inhibition at 0.1 µM (ALK_R1275Q) of the same compound?
Answer: 6%

Question: What about the inhibition at 0.1 µM (PAK6) of the same compound?
Answer: 1%

Question: What about the inhibition at 0.1 µM (TSSK2) of the same compound?
Answer: -6%

Question: And the inhibition at 0.1 µM (ABL1_M351T)?
Answer: 16%

Question: What about the inhibition at 0.1 µM (ALK_F1174S) of the same compound?
Answer: 13%

Question: What about the inhibition at 0.1 µM (CDK9_cyclinT1) of the same compound?
Answer: 17%

Question: And the inhibition at 0.1 µM (PAK1)?
Answer: 18%

Question: And the inhibition at 0.1 µM (MATK)?
Answer: 9%

Question: What about the inhibition at 0.1 µM (IRAK4) of the same compound?
Answer: 13%

Question: What about the inhibition at 0.1 µM (GRK4) of the same compound?
Answer: 16%

Question: What about the inhibition at 0.1 µM (RET) of the same compound?
Answer: 27%

Question: What about the inhibition at 0.1 µM (LIMK2) of the same compound?
Answer: 6%

Question: And the inhibition at 0.1 µM (TGFBR2)?
Answer: 68%

Question: And the inhibition at 0.1 µM (ADRBK1)?
Answer: 4%

Question: What about the inhibition at 0.1 µM (EGFR_E746-A750del) of the same compound?
Answer: 9%

Question: What about the inhibition at 0.1 µM (FLT3) of the same compound?
Answer: 6%

Question: And the inhibition at 0.1 µM (FGFR3_G697C)?
Answer: -1%

Question: What about the inhibition at 0.1 µM (ABL1_E255K) of the same compound?
Answer: -2%

Question: And the inhibition at 0.1 µM (RET_R749T)?
Answer: 30%

Question: And the inhibition at 0.1 µM (TBK1)?
Answer: 11%

Question: And the inhibition at 0.1 µM (CDK5_p35)?
Answer: 9%

Question: What about the inhibition at 0.1 µM (KIT_V560G) of the same compound?
Answer: 19%

Question: And the inhibition at 0.1 µM (PLK2)?
Answer: 17%

Question: What about the inhibition at 0.1 µM (CSNK1A1) of the same compound?
Answer: -6%

Question: What about the inhibition at 0.1 µM (TEK_R849W) of the same compound?
Answer: 8%

Question: What about the inhibition at 0.1 µM (PRKD3) of the same compound?
Answer: 2%

Question: And the inhibition at 0.1 µM (EIF2AK2)?
Answer: 9%

Question: What about the inhibition at 0.1 µM (TAOK2) of the same compound?
Answer: 15%

Question: And the inhibition at 0.1 µM (NLK)?
Answer: 33%

Question: What about the inhibition at 0.1 µM (LRRK2_I2020T) of the same compound?
Answer: 49%

Question: What about the inhibition at 0.1 µM (STK25) of the same compound?
Answer: 1%

Question: For `Cc1cc2cc(c1)-c1cnn3ccc(nc13)NCCNC(=O)CCN(C)C2` [OD52], which inhibition at 0.1 µM (NEK11) is on record?
Answer: 4%

Question: What about the inhibition at 0.1 µM (KIT_V559D) of the same compound?
Answer: -6%

Question: What about the inhibition at 0.1 µM (SGK3) of the same compound?
Answer: 0%

Question: And the inhibition at 0.1 µM (ALK_C1156Y)?
Answer: -6%

Question: What about the inhibition at 0.1 µM (PLK1) of the same compound?
Answer: -1%

Question: What about the inhibition at 0.1 µM (MKNK1) of the same compound?
Answer: -11%

Question: And the inhibition at 0.1 µM (CDC42BPB)?
Answer: 11%

Question: And the inhibition at 0.1 µM (BRAF)?
Answer: 16%

Question: And the inhibition at 0.1 µM (ROCK2)?
Answer: -9%

Question: And the inhibition at 0.1 µM (ABL1)?
Answer: 0%

Question: And the inhibition at 0.1 µM (STK39)?
Answer: 5%

Question: And the inhibition at 0.1 µM (ALK_R1275Q)?
Answer: -1%

Question: And the inhibition at 0.1 µM (PAK6)?
Answer: 4%

Question: What about the inhibition at 0.1 µM (TSSK2) of the same compound?
Answer: 11%

Question: What about the inhibition at 0.1 µM (ABL1_M351T) of the same compound?
Answer: -7%

Question: What about the inhibition at 0.1 µM (ALK_F1174S) of the same compound?
Answer: -18%

Question: What about the inhibition at 0.1 µM (CDK9_cyclinT1) of the same compound?
Answer: -3%

Question: What about the inhibition at 0.1 µM (PAK1) of the same compound?
Answer: -1%

Question: What about the inhibition at 0.1 µM (MATK) of the same compound?
Answer: -9%

Question: What about the inhibition at 0.1 µM (IRAK4) of the same compound?
Answer: -2%

Question: And the inhibition at 0.1 µM (GRK4)?
Answer: 16%

Question: What about the inhibition at 0.1 µM (RET) of the same compound?
Answer: 28%

Question: What about the inhibition at 0.1 µM (LIMK2) of the same compound?
Answer: 2%

Question: And the inhibition at 0.1 µM (TGFBR2)?
Answer: 0%

Question: And the inhibition at 0.1 µM (ADRBK1)?
Answer: 10%

Question: What about the inhibition at 0.1 µM (EGFR_E746-A750del) of the same compound?
Answer: -11%

Question: What about the inhibition at 0.1 µM (FLT3) of the same compound?
Answer: -18%

Question: And the inhibition at 0.1 µM (FGFR3_G697C)?
Answer: -10%

Question: What about the inhibition at 0.1 µM (ABL1_E255K) of the same compound?
Answer: 7%

Question: And the inhibition at 0.1 µM (RET_R749T)?
Answer: 36%

Question: And the inhibition at 0.1 µM (TBK1)?
Answer: -1%

Question: And the inhibition at 0.1 µM (CDK5_p35)?
Answer: -8%

Question: What about the inhibition at 0.1 µM (KIT_V560G) of the same compound?
Answer: -21%

Question: And the inhibition at 0.1 µM (PLK2)?
Answer: -4%

Question: What about the inhibition at 0.1 µM (CSNK1A1) of the same compound?
Answer: 1%

Question: And the inhibition at 0.1 µM (TEK_R849W)?
Answer: -16%

Question: What about the inhibition at 0.1 µM (PRKD3) of the same compound?
Answer: 4%

Question: What about the inhibition at 0.1 µM (EIF2AK2) of the same compound?
Answer: -1%

Question: What about the inhibition at 0.1 µM (TAOK2) of the same compound?
Answer: 3%

Question: What about the inhibition at 0.1 µM (NLK) of the same compound?
Answer: 1%

Question: And the inhibition at 0.1 µM (LRRK2_I2020T)?
Answer: 22%

Question: What about the inhibition at 0.1 µM (STK25) of the same compound?
Answer: 2%
